Experimental data taken from US6180599A, “Pharmaceutical composition, containing medium-chain fatty acids as active ingredients, for dental caries and periodontal disease” (priority 1997, dated 2001).

How the values were obtained:
[1] = test system: Streptococcus mutans; experiment: Extracellular polysaccharide synthesis in plaque bacteria separated from human oral cavities; type: cell-based; settings: 1 mM
Method: (§1) In order to identify the effect by which medium-chain fatty acids inhibit plaque matrix formation, inhibitory effect and concentration of extracellular polysaccharide synthesis were determined in seven kinds of standard cariogenic plaque bacteria. Also, the inhibitory effect of extracellular polysaccharide synthesis for 20 kinds of cariogenic plaque bacteria, separated from the human oral cavity, was measured. Liquid culture media used were: Todd-Hewitt broth of Streptococcus, Lactobacilli MRS broth of Lactobacillus and Brain Heart Infusion broth of Actinomyces. 0.1 ml of bacterial (or cell) suspension (OD600 =0.5) of each bacteria was inoculated to 5.9 ml of culture media containing 1 mM of medium-chain fatty acids and 2% of glucose, and was cultured for 24^~ 48 hours in 10% CO2 incubator. After culturing, the resultant was centrifuged to precipitate at 5,000×g for 15 minutes, then soluble extracellular polysaccharide was separated and purified from the supernatant and insoluble extracellular polysaccharide from the cell pellet, and then these were quantified. So the experimental results that represent inhibitory effect of medium-chain fatty acids upon extracellular polysaccharide synthesis, are shown in table 1, 2, 3 and 4.

[2] = test system: Streptococcus sobrinus; experiment: as above; type: cell-based; settings: isolate XX, 1 mM
Method: as §1

[3] = test system: Lactobacillus casei; experiment: as above; type: cell-based; settings: 1 mM
Method: as §1

[4] = test system: cariogenic plaque bacteria (standard strains); experiment: Inhibitory effect of bacterial growth, standard strains; type: cell-based, Streptococcus, Lactobacillus and Actinomyces
Method: In order to evaluate how medium-chain fatty acids influence bacterial growth of cariogenic plaque bacteria, the influence on each bacteria was evaluated after selecting seven kinds of bacterial strains as standard bacteria among cariogenic plaque bacteria. […] The results that medium-chain fatty acids have on influencing bacterial growth of cariogenic plaque bacteria is shown in FIG. 3. And the result of measuring inhibitory effect of bacterial growth of 20 kinds of cariogenic plaque bacteria separated from the human oral cavities is shown in FIG. 4.

[5] = test system: dental caries; experiment: Inhibitory effect on the occurrence of dental caries in rats; type: in vivo, Sprague-Dawley rats; settings: for Linear unit for fissure-region dental caries, Dm: dentine moderate; for Linear unit for fissure-region dental caries, Dm / Linear unit for fissure-region dental caries, Ds / Linear unit for fissure-region dental caries, E: 50 mM in feed, 120 days; for Linear unit for fissure-region dental caries, Ds: dentine slight; for Linear unit for fissure-region dental caries, E: enamel only
Method: This experiment was carried out utilizing a dental caries experiment model in rats of Navia (1977) as followings.
Experimental animals were 48 (male: 24, female: 24) Sprague-Dawley rats, four-weeks old and of […] average body weight. These animals are equally divided into three groups according to sex and body weight at the early stage, and all these animals have clinically healthy teeth.
Experimental animals are divided into 3 groups according to diet, which are a control group of normal feed, a group of dental caries-induced feed and a experimental group of sodium laurate-added feed. Normal feed is solid feed for rodents (SAMYANG Co., Korea), caries-induced feed is prepared by mixing 40% sugar, 32% powdered milk, 21% flour, 5% yeast, 2% anchovy, 0.01% vitamin B and 0.01% vitamin C. Sodium laurate-added feed was prepared by adding 50 mM of sodium laurate to caries-induced feed. All the experimental animals were allowed water ad libitum.
One hundred twenty days later, all experimental animals were euthanized. The maxilla and mandible were separated, and fixed in 10% neutral formalin. A dental caries index was measured by the method originated by Keyes and modified by Larson (1981). Food debris remaining in the fissure of molar of maxilla and mandible was removed by a Barbed Broach tool used in clinical dentistry, then the molar teeth of maxilla and mandible were cut so that they could include the first, second, and third molar by using an Exact cutting system (Exact-Apprateb, Hamburg, Germany) equipped with a diamond-treated saw. Cutting of the molar teeth of both maxilla and mandible was carried out by a handpiece equipped with cutting disc (thickness, 0.004 inch; diameter, 0.75 inch). The direction of the cutting was from the mesial side of the first molar to the distal side of the third molar. The samples which were cut were stained in order to measure the dental caries-index easily. Staining was carried out as follows; samples were cultured with 0.02% solution of ammonium prupurate (murexide) for 12 hours, washed with flowing water for 10 minutes, then treated with 0.2% of ammoniacal silver nitrate for 30 seconds and washed with flowing water for 2 minutes before measurement. The degree of the affection of dental caries at the cut surface is classified into enamel only (E) when dental caries is affected only to enamel; and into slight (Ds), moderate (Dm) and extensive (Dx) according to the extent of affection when dental caries is affected further into the dentine. The total sum was calculated by adding up marks within the range of linear units administered to each tooth according to the modified method of Larson (1981).
Statistical analysis of each group concerning the linear unit, showing the extent of dental caries, was carried out using the Mann-Whitney test. Statistical analysis according to the feed and the region where the teeth were placed (maxilla or mandible) was carried out by the Kruskal-Wallis test. If more than 2/3 of the dental crown was lost due to serious abrasion and if it was impossible to observe in the process of treating samples, these teeth were excluded in the statistics.

## CCCCCCCCCCCC(=O)[O-].[Na+] [C12, sodium laurate]
[1]; isolate XI
  Inhibitory rate: 70%
[1]; isolate XI, control 95.2 ± 8.3
  Soluble extracellular polysaccharide: 28.6 ± 3.5 µg/mL
[1]; isolate XII
  Inhibitory rate: 58%
[1]; isolate XII, control 84.2 ± 8.6
  Soluble extracellular polysaccharide: 35.2 ± 5.0 µg/mL
[1]; isolate XIII
  Inhibitory rate: 69%
[1]; isolate XIII, control 90.5 ± 8.3
  Soluble extracellular polysaccharide: 27.7 ± 3.3 µg/mL
[1]; isolate XIV
  Inhibitory rate: 53%
[1]; isolate XIV, control 90.5 ± 2.9
  Soluble extracellular polysaccharide: 42.6 ± 1.0 µg/mL
[1]; isolate XIX
  Inhibitory rate: 70%
[1]; isolate XIX, control 113.7 ± 6.8
  Soluble extracellular polysaccharide: 34.3 ± 3.3 µg/mL
[1]; isolate XV
  Inhibitory rate: 62%
[1]; isolate XV, control 117.9 ± 4.6
  Soluble extracellular polysaccharide: 44.5 ± 1.7 µg/mL
[1]; isolate XVI
  Inhibitory rate: 66%
[1]; isolate XVI, control 143.2 ± 11.1
  Soluble extracellular polysaccharide: 48.2 ± 4.5 µg/mL
[1]; isolate XVII
  Inhibitory rate: 67%
[1]; isolate XVII, control 107.8 ± 17.0
  Soluble extracellular polysaccharide: 35.4 ± 2.1 µg/mL
[1]; isolate XVIII
  Inhibitory rate: 59%
[1]; isolate XVIII, control 98.5 ± 9.0
  Soluble extracellular polysaccharide: 40.5 ± 1.7 µg/mL
[2]
  Inhibitory rate: 79%
[2]; control 116.0 ± 17.2
  Soluble extracellular polysaccharide: 24.0 ± 1.5 µg/mL
[3]; isolate I
  Inhibitory rate: 76%
[3]; isolate I, control 105.1 ± 7.2
  Soluble extracellular polysaccharide: 25.1 ± 1.7 µg/mL
[3]; isolate II
  Inhibitory rate: 71%
[3]; isolate II, control 121.4 ± 27.1
  Soluble extracellular polysaccharide: 35.0 ± 2.9 µg/mL
[3]; isolate III
  Inhibitory rate: 75%
[3]; isolate III, control 140.4 ± 4.9
  Soluble extracellular polysaccharide: 34.7 ± 0.9 µg/mL
[3]; isolate IV
  Inhibitory rate: 74%
[3]; isolate IV, control 151.4 ± 7.6
  Soluble extracellular polysaccharide: 38.8 ± 4.1 µg/mL
[3]; isolate IX
  Inhibitory rate: 79%
[3]; isolate IX, control 214.6 ± 18.8
  Soluble extracellular polysaccharide: 46.1 ± 3.0 µg/mL
[3]; isolate V
  Inhibitory rate: 73%
[3]; isolate V, control 137.4 ± 21.8
  Soluble extracellular polysaccharide: 36.6 ± 4.3 µg/mL
[3]; isolate VI
  Inhibitory rate: 74%
[3]; isolate VI, control 184.6 ± 6.5
  Soluble extracellular polysaccharide: 48.5 ± 2.7 µg/mL
[3]; isolate VII
  Inhibitory rate: 70%
[3]; isolate VII, control 149.9 ± 16.8
  Soluble extracellular polysaccharide: 44.7 ± 3.1 µg/mL
[3]; isolate VIII
  Inhibitory rate: 72%
[3]; isolate VIII, control 221.6 ± 20.1
  Soluble extracellular polysaccharide: 62.6 ± 3.4 µg/mL
[3]; isolate X
  Inhibitory rate: 72%
[3]; isolate X, control 201.7 ± 36.1
  Soluble extracellular polysaccharide: 56.3 ± 8.2 µg/mL
[4]; 0.5-8 mM, pH 5.0 and 7.0, OD 600 nm, 24-48 hours
  inhibitory effect of bacterial growth (in words): almost completely inhibits
[4]; ranking, FIG. 3
  inhibitory effect of bacterial growth, sequence: sodium laurate>sodium capriate>sodium nonanoate
[5]; 164 teeth, P < 0.01 vs caries-inducing feed (3.01 ± 2.35), normal feed 2.34 ± 1.37
  Linear unit, Total (average ± standard deviation): 1.71 ± 1.26
[5]; Mandible, 1st molar
  Linear unit for fissure-region dental caries, Dm: 0
  Linear unit for fissure-region dental caries, Ds: 7
  Linear unit for fissure-region dental caries, E: 72
[5]; Mandible, 2nd molar
  Linear unit for fissure-region dental caries, Dm: 0
  Linear unit for fissure-region dental caries, Ds: 10
  Linear unit for fissure-region dental caries, E: 55
[5]; Mandible, 3rd molar
  Linear unit for fissure-region dental caries, Dm: 0
  Linear unit for fissure-region dental caries, Ds: 0
  Linear unit for fissure-region dental caries, E: 16
[5]; Maxilla, 1st molar
  Linear unit for fissure-region dental caries, Dm: 0
  Linear unit for fissure-region dental caries, Ds: 1
  Linear unit for fissure-region dental caries, E: 61
[5]; Maxilla, 2nd molar
  Linear unit for fissure-region dental caries, Dm: 0
  Linear unit for fissure-region dental caries, Ds: 0
  Linear unit for fissure-region dental caries, E: 41
[5]; Maxilla, 3rd molar
  Linear unit for fissure-region dental caries, Dm: 0
  Linear unit for fissure-region dental caries, Ds: 0
  Linear unit for fissure-region dental caries, E: 17
[5]; sodium laurate-added feed
  dental caries in experimental animals (in words): noticeably reduced dental caries in experimental animals
